The values that follow come from patent publication US8367838B2, “Amines or amino alcohols as GLYT1 inhibitors” (Hoffmann-La Roche Inc., priority 2009, dated 2013).

Molecules are shown by their SMILES. Counter-ions that a name gives are not always drawn.

In the assay the target is T1, mGlyT-1b (Mus musculus, UniProt P28571).
T1 construct: host or cells: Flp-in-CHO
T1 sequence (P28571 1-651 isoform P28571-2): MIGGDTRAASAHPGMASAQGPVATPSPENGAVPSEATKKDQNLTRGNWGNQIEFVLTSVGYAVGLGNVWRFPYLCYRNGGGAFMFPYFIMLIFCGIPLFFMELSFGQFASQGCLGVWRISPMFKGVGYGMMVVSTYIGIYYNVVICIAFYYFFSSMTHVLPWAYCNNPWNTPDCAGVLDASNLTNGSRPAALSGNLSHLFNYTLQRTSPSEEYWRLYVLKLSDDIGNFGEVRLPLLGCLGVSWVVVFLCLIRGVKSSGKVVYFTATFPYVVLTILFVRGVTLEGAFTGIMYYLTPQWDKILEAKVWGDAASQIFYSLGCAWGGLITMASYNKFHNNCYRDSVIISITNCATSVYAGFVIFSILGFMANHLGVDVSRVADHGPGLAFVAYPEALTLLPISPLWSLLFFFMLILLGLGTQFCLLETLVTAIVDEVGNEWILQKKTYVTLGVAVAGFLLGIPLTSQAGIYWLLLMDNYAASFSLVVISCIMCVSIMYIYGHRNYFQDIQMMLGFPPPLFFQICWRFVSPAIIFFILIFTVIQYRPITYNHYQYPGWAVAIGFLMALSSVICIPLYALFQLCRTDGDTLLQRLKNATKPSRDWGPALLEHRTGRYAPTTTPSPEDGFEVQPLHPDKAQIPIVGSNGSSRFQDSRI
The assay is described as follows: Glycine uptake inhibition assay (mGlyT-1b), [3H]-glycine uptake in transfected Flp-in-CHO cells. In kind it is cell-based. The following applies: Flp-in-CHO cells transfected with mGlyT-1b cDNA; [3H]-glycine 60 nM and 25 μM non-radioactive glycine; 20 min preincubation at 22° C.; read-out: IC50 (μM) at GlyT-1; Ic50 (hglyt1b). The method, then: Nutrient mixture F-12 (Gibco Life-technologies), fetal bovine serum (FBS) 5%, (Gibco life technologies), Penicillin/Streptomycin 1% (Gibco life technologies), Hygromycin 0.6 mg/ml (Gibco life technologies), Glutamine 1 mM Gibco life technologies).
150 mM NaCl, 10 mM Hepes-Tris, pH 7.4, 1 mM CaCl2, 2.5 mM KCl, 2.5 mM MgSO4, 10 mM (+) D-glucose. Flp-in™-CHO (Invitrogen Cat n° R758-07) cells stably transfected with mGlyT1b cDNA.
Glycine Uptake Inhibition Assay (mGlyT-1b)
On day 1 mammalian cells, (Flp-in™-CHO), transfected with mGlyT-1b cDNA, were plated at the density of 40,000 cells/well in complete F-12 medium, without hygromycin in 96-well culture plates. On day 2, the medium was aspirated and the cells were washed twice with uptake buffer (UB). The cells were then incubated for 20 min at 22° C. with either (i) no potential competitor, (ii) 10 mM non-radioactive glycine, (iii) a concentration of a potential inhibitor. A range of concentrations of the potential inhibitor was used to generate data for calculating the concentration of inhibitor resulting in 50% of the effect (e.g. IC50, the concentration of the competitor inhibiting glycine uptake of 50%). A solution was then immediately added containing [^3H]-glycine 60 nM (11-16 Ci/mmol) and 25 μM non-radioactive glycine. The plates were incubated with gentle shaking and the reaction was stopped by aspiration of the mixture and washing (three times) with ice-cold UB. The cells were lysed with scintillation liquid, shaken 3 hours and the radioactivity in the cells was counted using a scintillation counter.
Consider `Cc1ccc([C@H](N)[C@H](O)c2ccc(OC3CCOCC3)cc2)cc1Cl` (racemic) [Example 54, rac-erythro-[2-Amino-2-(3-chloro-4-methyl-phenyl)-1-[4-(tetrahydro-pyran-4-yloxy)-phenyl]-ethanol], for which the IC50 was determined as 0.104 µM.
Then `Cc1ccc([C@H](N)[C@H](O)c2ccc(OC3CCOC3)cc2)cc1Cl` (mixture of isomers) [Example 55, rac-erythro-[2-Amino-2-(3-chloro-4-methyl-phenyl)-1-[4-(tetrahydro-furan-3-yloxy)-phenyl]-ethanol], with 0.131 µM; and `Cc1ccc([C@H](N)[C@H](O)c2ccc(OC(C)C)cc2)cc1Cl` (racemic) [Example 56, rac-erythro-2-Amino-2-(3-chloro-4-methylphenyl)-1-(4-isopropoxy-phenyl)-ethanol], with 0.381 µM; and `Cc1ccc([C@H](N)[C@H](O)c2ccc(OC3CCOCC3)cc2)cc1F` (racemic) [Example 57, rac-erythro-2-Amino-2-(3-fluoro-4-methyl-phenyl)-1-[4-(tetrahydro-pyran-4-yloxy)-phenyl]-ethanol], with 0.202 µM.
On to `N[C@@H](c1ccc(Cl)cc1)[C@H](O)c1ccc(OC(CF)CF)cc1` (racemic) [Example 58, rac-erythro-2-Amino-2-(4-chloro-phenyl)-1-[4-(2-fluoro-1-fluoromethyl-ethoxy)-phenyl]-ethanol], for which the IC50 stood at 0.478 µM.
As for `N[C@@H](c1ccc(Cl)cc1)[C@H](O)c1ccc(OC2CCOCC2)cc1` (racemic) [Example 59, rac-erythro-2-Amino-2-(4-chloro-phenyl)-1-[4-(tetrahydro-pyran-4-yloxy)-phenyl]-ethanol], the IC50 is 0.054 µM.
With `COCc1cccc(-c2ccc([C@@H](O)[C@@H](N)c3ccc(Cl)cc3)cc2)c1` (racemic) [Example 60, rac-erythro-2-Amino-2-(4-chloro-phenyl)-1-(3′-methoxymethyl-biphenyl-4-yl)-ethanol hydrochloride], the 50% inhibitory concentration (IC50) is 0.261 µM.
Then `N[C@@H](c1ccc(Cl)cc1)[C@H](O)c1ccc(-c2ccncc2)cc1` (racemic) [Example 61, rac-erythro-2-Amino-2-(4-chloro-phenyl)-1-(4-pyridin-4-yl-phenyl)-ethanol], with 0.06 µM; and `CS(=O)(=O)c1cccc(-c2ccc([C@@H](O)[C@@H](N)c3ccc(Cl)cc3)cc2)c1` (racemic) [Example 62, rac-erythro-2-Amino-2-(4-chloro-phenyl)-1-(3′-methanesulfonyl-biphenyl-4-yl)-ethanol], with 0.068 µM; and `N[C@@H](c1ccc(Cl)cc1)[C@H](O)c1ccc(-c2cccnc2)cc1` (racemic) [Example 63, rac-erythro-2-Amino-2-(4-chloro-phenyl)-1-(4-pyridin-3-yl-phenyl)-ethanol hydrochloride], with 0.09 µM.
With `COc1cncc(-c2ccc([C@@H](O)[C@@H](N)c3ccc(Cl)cc3)cc2)c1` (racemic) [Example 64, rac-erythro-2-Amino-2-(4-chloro-phenyl)-1-[4-(5-methoxy-pyridin-3-yl)-phenyl]-ethanol], the IC50 was found to be 0.138 µM.
The result for `N[C@@H](c1ccc(Cl)cc1)[C@H](O)c1ccc(-c2cncnc2)cc1` (racemic) [Example 65, rac-erythro-2-Amino-2-(4-chloro-phenyl)-1-(4-pyrimidin-5-yl-phenyl)-ethanol] reads 0.139 µM; that for `N[C@@H](c1ccc(Cl)cc1)[C@H](O)c1ccc(-c2cncc(F)c2)cc1` (racemic) [Example 66, rac-erythro-2-Amino-2-(4-chloro-phenyl)-1-[4-(5-fluoro-pyridin-3-yl)-phenyl]-ethanol], 0.152 µM.
The result for `CC(=O)Nc1cccc(-c2ccc([C@@H](O)[C@@H](N)c3ccc(Cl)cc3)cc2)c1` (racemic) [Example 67, rac-erythro-N-[4′-[2-Amino-2-(4-chloro-phenyl)-1-hydroxy-ethyl]-biphenyl-3-yl]-acetamide] reads 0.173 µM.
The result for `N[C@@H](c1ccc(Cl)cc1)[C@H](O)c1ccc(-c2ccccc2F)cc1` (racemic) [Example 68, rac-erythro-2-Amino-2-(4-chloro-phenyl)-1-(2′-fluoro-biphenyl-4-yl)-ethanol] reads 0.18 µM; that for `Nc1ccc(-c2ccc([C@@H](O)[C@@H](N)c3ccc(Cl)cc3)cc2)cn1` (racemic) [Example 69, rac-erythro-2-Amino-1-[4-(6-amino-pyridin-3-yl)-phenyl]-2-(4-chloro-phenyl)-ethanol], 0.217 µM.
`N[C@@H](c1ccc(Cl)cc1)[C@H](O)c1ccc(-c2ccsc2)cc1` (racemic) [Example 70, rac-erythro-2-Amino-2-(4-chloro-phenyl)-1-(4-thiophen-3-yl-phenyl)-ethanol]: the IC50 was 0.297 µM.
Then `Cc1cccc(-c2ccc([C@@H](O)[C@@H](N)c3ccc(Cl)cc3)cc2)c1` (racemic) [Example 71, rac-erythro-2-Amino-2-(4-chloro-phenyl)-1-(3′-methyl-biphenyl-4-yl)-ethanol], with 0.342 µM.
Take `COc1cccc(-c2ccc([C@@H](O)[C@@H](N)c3ccc(Cl)cc3)cc2)c1` (racemic) [Example 72, rac-erythro-2-Amino-2-(4-chloro-phenyl)-1-(3′-methoxy-biphenyl-4-yl)-ethanol]: the IC50 is 0.385 µM.
The result for `N[C@@H](c1ccc(Cl)cc1)[C@H](O)c1ccc(-c2ccccc2Cl)cc1` (racemic) [Example 73, rac-erythro-2-Amino-1-(2′-chloro-biphenyl-4-yl)-2-(4-chloro-phenyl)-ethanol] reads 0.462 µM.
The result for `N[C@@H](c1ccc(Cl)cc1)[C@H](O)c1ccc(-c2cccc(Cl)c2)cc1` (racemic) [Example 74, rac-erythro-2-Amino-1-(3′-chloro-biphenyl-4-yl)-2-(4-chloro-phenyl)-ethanol] reads 0.544 µM.
The result for `Cc1nc(C)c(-c2ccc([C@@H](O)[C@@H](N)c3ccc(Cl)cc3)cc2)s1` (racemic) [Example 75, rac-erythro-2-Amino-2-(4-chloro-phenyl)-1-[4-(2,4-dimethyl-thiazol-5-yl)-phenyl]-ethanol] reads 0.582 µM; that for `Cc1ccccc1-c1ccc([C@@H](O)[C@@H](N)c2ccc(Cl)cc2)cc1` (racemic) [Example 76, rac-erythro-2-Amino-2-(4-chloro-phenyl)-1-(2′-methyl-biphenyl-4-yl)-ethanol], 0.642 µM; that for `COc1ccc(-c2ccc([C@@H](O)[C@@H](N)c3ccc(Cl)cc3)cc2)cn1` (racemic) [Example 77, rac-erythro-2-Amino-2-(4-chloro-phenyl)-1-[4-(6-methoxy-pyridin-3-yl)-phenyl]-ethanol], 0.814 µM.
With `N[C@@H](c1ccc(Cl)cc1)[C@H](O)c1ccc(-c2cccc(OC(F)(F)F)c2)cc1` (racemic) [Example 78, rac-erythro-2-Amino-2-(4-chloro-phenyl)-1-(3′-trifluoromethoxy-biphenyl-4-yl)-ethanol], the IC50 is 0.88 µM.
Then `N[C@@H](c1ccc(Cl)cc1)[C@H](O)c1ccc(-c2cccc(C(F)(F)F)c2)cc1` (racemic) [Example 79, rac-erythro-2-Amino-2-(4-chloro-phenyl)-1-(3′-trifluoromethyl-biphenyl-4-yl)-ethanol], with 0.93 µM; and `N[C@@H](c1ccc(Cl)cc1)[C@H](O)c1ccc(N2CCOCC2)nc1` (racemic) [Example 80, rac-erythro-2-Amino-2-(4-chloro-phenyl)-1-(6-morpholin-4-yl-pyridin-3-yl)-ethanol], with 1.04 µM; and `N[C@@H](c1ccc(Cl)c(Cl)c1)[C@H](O)c1ccc(-c2cccnc2)cc1` (racemic) [Example 81, rac-erythro-2-Amino-2-(3,4-dichloro-phenyl)-1-(4-pyridin-3-yl-phenyl)-ethanol], with 0.031 µM.
